Assay results published in US20220023231A1, “METHOD OF TREATING POSTPRANDIAL INFLAMMATION AND PREVENTING WEIGHT GAIN” (DASMAN DIABETES INSTITUTE, priority 2020, published 2022).

How the values were obtained:
THP-1 cells [1] = test: Flow cytometry (FACS) assessment of lipid accumulation in TNF-α stimulated THP-1 derived macrophages; assay type: cell-based, Human; conditions: in response to the presence of TNF-α
Protocol: (§1) Cell culture: Human monocytic leukemia cell line (THP-1) cells were purchased from American Type Culture Collection (ATCC). Cell cultures were maintained in RPMI-1640 culture medium (Gibco, Life Technologies, Grand Island, USA) supplemented with 10% fetal bovine serum (Gibco, Life Technologies, Grand Island, N.Y., USA), 2 mM glutamine (Gibco, Invitrogen, Grand Island, N.Y., USA), 1 mM sodium pyruvate, 10 mM HEPES, 100 ug/m1 Normocin 50 U/ml penicillin and 50 μg/m1 streptomycin (P/S; Gibco, Invitrogen, Grand Island, N.Y., USA) and incubated at 37° C. (with humidity) in 5% CO2.
(§2) Cell stimulation: Prior to stimulation, THP-1 cells were plated in 24-well plates (Costar, Corning Incorporated, Corning, N.Y., USA) at 5×10^5 cells/well cell density unless indicated otherwise. […]

human macrophages = test: Inflammatory and infiltration marker gene expression in human macrophages exposed to palmitic acid; assay type: cell-based; conditions: 30 minutes pre-treatment before addition of palmitic acid
macrophage = test: Fatty acid uptake related gene expression and intracellular fat in macrophages/monocytes exposed to palmitic acid; assay type: cell-based
[2] = tested on: pro-inflammatory monocytes (CD45+/Ly6C/CD11b+ cells); test: Acute high fat food feeding in mice, pro-inflammatory monocytes in blood by flow cytometry; assay type: in vivo, mouse
Protocol: Further experiments were developed to test the utility of Triacsin C as an anti-inflammatory and/or weight gain prevention drug in a mouse model. Base line blood samples were taken from each mouse before feeding. Mice were then administered either Triacsin C (10 mg/m1) or a vehicle (control) in a drinkable form 30 minutes prior to introducing them to high fat food. Four hours after food consumption another blood sample was collected from each mouse and the inflammatory response was measured using flow cytometry to look for pro-inflammatory monocytes (CD45^+/Ly6C/CD11b^+ cells). (See FIGS. 7(A)-7(B)) The experiment was repeated 5 times on non-consecutive days and also confirmed that the dose was safe.
(§3) A further experiment was designed to test whether constant daily doses of Triacsin C could prevent weight gain (or the development of obesity and other weight gain related diseases). […] Mice were placed on a constant high fat diet (HFD) for up to 5 weeks in the presence of a daily (drinkable) dose of either Triacsin C or the vehicle control (FIG. 9(A)).

THP-1 cells [3] = test: Oil Red O staining of lipid accumulation in TNF-α stimulated THP-1 derived macrophages; assay type: cell-based, Human; conditions: in response to TNF-α (10 ng/ml)
Protocol: as §1, §2
Oil Red O staining: To determine the degree of lipid accumulation, the accumulation of cytoplasmic triglycerides in cells were measured by staining with Oil Red O (SigmaAldrich, St Louis, Mo., USA). […]

[4] = Constant high fat diet (HFD) in mice with daily drinkable dose; assay type: in vivo, mouse
Text: as §3

THP-1 cells [5] = test: IL-1β ELISA and TNF-α / CD11b mRNA expression in macrophage cells after TNF-α; assay type: cell-based, Human; conditions: in response to TNF-α treatment
Protocol: as §1, §2

[6] = daily dose, HFD, versus vehicle control
[7] = low daily drinkable dose, HFD up to 5 weeks

SMILES	lipid accumulation (FACS, cell size and granulation) (THP-1 cells [1])	infiltration markers (CD11b, CCR2, CD80) (human macrophages)	upregulation of monocytic inflammatory markers (IL-1b, CD11c, HLA-DR) (human macrophages)	amount of intracellular fat found within monocytes (macrophage; data not shown)	expression of fatty acid uptake-related genes (macrophage; pre-treatment, response to palmitic acid (FIG. 5))	safety of the dose ([2]; 10 mg/m1 drinkable, repeated 5 times on non-consecutive days)	inflammatory response in monocytes (CD45+, Ly6C+, CD11b+ cells) ([2]; drinkable, 30 minutes prior to high fat food, blood four hours after food)	reduction of inflammatory upregulation ([2]; lower dose, four-hour acute high fat diet feeding)	pro-inflammatory monocytes ([2]; lower dose, four-hour acute high fat diet feeding, control 34.2%)	lipid accumulation (Oil Red O staining) (THP-1 cells [3])	adipose tissue (fat) of livers [4, 6]	liver size [4, 6]	increase in inflammatory monocytes from long term HFD [4, 7]	weight gain resulting from HFD [4, 7]	inflammatory markers (IL-1B protein, TNF-α mRNA, CD11b mRNA) (THP-1 cells [5])
CCOC(=O)[C@@]1(CCCCCCOc2ccc(Cl)cc2)CO1 [Etomoxir]	increased lipid accumulation	–	–	–	–	–	–	–	–	–	–	–	–	–	–
CCC/C=C/C/C=C/C=C/C=NNN=O [Triacsin C, N-(((2E,4E,7E)-undeca-2,4,7-trienylidene)amino)nitrous amide]	no significant change in apparent lipid accumulation	reduce infiltration markers	reduce the upregulation of monocytic inflammatory markers	reduced the amount of intracellular fat found within monocytes	inhibited expression of fatty acid uptake-related genes	safe	inhibit the inflammatory response in monocytes	10%	25.4%	prevents lipid accumulation	significantly less adipose tissue	smaller	prevented the increase in inflammatory monocytes	dramatically prevented	little to no change in inflammatory markers
